Test results published in PubChem BioAssay (NCI).
“And” between values parts separate entries of the source, which are not always exact repeats. Equal entries are not always repeated.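 Results reflect a 48-hour exposure of cells in 96-well plates to compound at five concentrations. GI50 is the concentration that inhibits growth by half. At the TGI there is no net growth.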

Key:
Test in all cases: DTP human tumour cell line panel, 48 h
[1] = tested on: A498 renal
[2] = tested on: COLO 205 colon
[3] = tested on: HOP-62 NSCLC
[4] = tested on: LOX IMVI melanoma
[5] = tested on: NCI-H226 lung
[6] = tested on: RPMI-8226 leukemia
[7] = tested on: SK-OV-3 ovarian
[8] = tested on: MDA-MB-435

| SMILES | GI50 [1] | TGI [1] | GI50 [2] [µM] | TGI [2] | GI50 [3] [µM] | TGI [3] [µM] | GI50 [4] [µM] | TGI [4] | GI50 [5] [µM] | TGI [5] [µM] | GI50 [6] | TGI [6] | GI50 [7] | TGI [7] | TGI [8] | GI50 [8] |
| --- | --- | --- | --- | --- | --- | --- | --- | --- | --- | --- | --- | --- | --- | --- | --- | --- |
| O=C1C(Cl)=C(Nc2ccc(S(=O)(=O)c3ccc(NC4=C(Cl)C(=O)c5ccccc5C4=O)cc3)cc2)C(=O)c2ccccc21 | 3.72 µM | 16.2 µM | 1.74 | 3.22 µM | 2.14 | 6.52 | 1.49 | 3.1 µM | 3.1 | 18.6 | 1.54 µM | 7.25 µM | 2.4 µM | 7.94 µM |  |  |
| O=c1ccc(N=Nc2ccccc2)ccc1O |  |  |  | 31.7 µM |  | 24.4 |  | 17.4 µM |  | 24.3 |  |  |  | > 100 µM | 30.7 µM |  |
| CC(C)=C[C@@H]1C[C@H](C)[C@H]2CC[C@H](C)c3c(O)c(OC4OC(C)C(O)C(O)C4O)c(C)c1c32 (stereo partly drawn) | 12.7 µM | 26.7 µM | 14.4 | 27.9 µM | 19.2 | 34.7 | 11.8 | 24.4 µM | 17.3 | 33.1 | 12.5 µM | 27.6 µM | 18.9 µM | 32.9 µM | 27.2 µM | 13.6 µM |
| Fc1ccccc1CN1COc2c(cc(Cl)c3cccnc23)C1 |  |  |  | 28.3 µM |  | 16.6 |  |  |  | 2.97 |  |  |  | 19.6 µM | 8.27 µM |  |
| O=C(Nc1ccn(C2CC(O)C(COC(c3ccccc3)(c3ccccc3)c3ccccc3)O2)c(=O)n1)c1ccccc1 (stereo not drawn) |  |  |  | 4.07 µM |  | 18.8 |  |  |  | 35.4 |  | 5.2 µM |  | 28.3 µM | 5.68 µM |  |
| [Br][Pb]([c]1ccccc1)([c]1ccccc1)[c]1ccccc1 | 0.177 µM | 0.4 µM | 0.177 | 0.356 µM | 0.218 | 0.505 | 0.132 | 0.299 µM | 0.173 | 0.381 | 0.179 µM | 0.681 µM | 0.401 µM | 1.51 µM | 0.435 µM | 0.19 µM |
| CC[C@H](C)[C@H](NC(=O)C12C3C4C1C1C2C3C41NC)C(=O)N(C)[C@H](C[C@@H](OC(C)=O)c1nc(C(=O)N[C@@H](Cc2ccccc2)C[C@H](C)C(=O)OC)cs1)C(C)C (stereo partly drawn) | 0.296 µM | 4.53 µM | 0.402 | 2.51 µM | 1.18 | > 11.7 | 0.493 | > 14.3 µM | > 7.85 | > 14.3 | 0.143 µM | > 6.29 µM | 0.698 µM | > 14.3 µM | 0.377 µM | 0.0489 µM |
| CCCCCCCCCCCCCCCCCc1nc(Cl)nc(Cl)c1Cl |  |  |  | > 100 µM |  | > 100 |  | > 100 µM |  | 34.6 |  | > 100 µM |  | > 100 µM | > 100 µM |  |
| NNc1c(C(N)=O)c2c(N)ncnc2n1C1OC(CO)C(O)C1O (stereo not drawn) | 0.0445 µM and 0.161 µM | 0.485 µM and 1.26 µM | < 0.01 | 0.0552 µM and 0.0342 µM | 0.124 |  | 0.0349 | 0.13 µM and 1.2 µM | 0.251 |  | 0.0404 µM and 0.0364 µM | 0.221 µM and 0.143 µM | < 0.0137 µM and 0.0273 µM | 0.413 µM and 0.361 µM | 0.148 µM and 0.265 µM | 0.0346 µM and 0.0483 µM |
| CCn1cc(C(=O)O)c(=O)c2cc(F)c(N3CCN(S(=O)(=O)c4ccc(Cl)cc4Cl)CC3)cc21 | 3 µM | 30 µM | 2.44 | 5.1 µM | 3.08 | 9.95 | 1.48 | 3.08 µM | 2.6 | 7.88 | 2.55 µM | 7.59 µM | 3 µM | 8.94 µM | 4.44 µM | 1.97 µM |
| Nc1nc(SCc2ccccc2CCl)c2[nH]cnc2n1 | 11.7 µM | 25.8 µM | 16.2 | 36.1 µM | 17 | 33.2 | 12.7 | 26.9 µM | 17.1 | 34.4 | 31.9 µM | > 100 µM | 16 µM | 32.2 µM | 25.7 µM | 12.8 µM |
| Cc1cc(C)c2nc3c(c(C(O)C4CCCCN4)c2c1)CC/C3=C\c1ccc(Cl)cc1 (stereo not drawn) |  | > 100 µM |  | > 100 µM |  | > 100 |  |  |  | > 100 |  | > 100 µM |  | > 100 µM | > 100 µM |  |
| N[C@@H]1CCCN(c2c(Br)cnc3[nH]cc(NC(=O)C4CC4)c23)C1 | 0.0412 µM | 0.182 µM | 2.27 | 59 µM | 0.646 | > 100 | 0.435 | 13.4 µM | 11 | > 94.6 | 0.68 µM |  | 0.448 µM | > 100 µM |  |  |
| NC(=NCCCCCCN=C(N)/N=C(\N)Nc1ccc(Cl)cc1)/N=C(\N)Nc1ccc(Cl)cc1 | 1.6 µM | 6.22 µM | 0.951 | 1.71 µM | 1.33 | 4.06 | 0.958 | 2.19 µM | 1.79 | 9.12 |  |  | 0.916 µM | 5.54 µM | 5.94 µM | 1.54 µM |
| COc1cc(C2CC(c3ccccc3)=NN2C=O)ccc1Oc1ccnc2cc(Cl)ccc12 (stereo not drawn) | 6.9 µM | > 100 µM | > 100 | > 100 µM | 12.4 | 36.3 | > 100 | > 100 µM | 5.24 | > 100 |  |  | 4.56 µM | > 100 µM |  |  |
| COc1cc(N=Nc2cc(Cc3ccc(N(C)C)cc3)c(N)cc2N(C)C)c2ncccc2c1 | 0.809 µM | 3.07 µM | 0.176 | 1.21 µM |  |  | 0.465 | 1.87 µM | 0.754 | 8.28 | 0.313 µM | 2.1 µM | 0.406 µM | 8.17 µM | 2.07 µM | 0.515 µM |
| CN1C2C=CC(=O)C1C1C(=O)N(c3ccccc3)C(=O)C12 (stereo not drawn) | 15.6 µM | 29.5 µM | 7.81 | 22 µM | 12.4 | 28.6 | 3.74 | 13.3 µM | 17.6 | 57.3 |  |  | 26.7 µM | > 100 µM | 22.8 µM | 3.44 µM |
| O=S(=O)(c1ccccc1)N1CCCC(c2ccccc2)CC1 (stereo not drawn) |  | > 100 µM |  | > 100 µM |  |  |  |  |  | > 100 |  | 49.8 µM |  |  | > 100 µM |  |
| CC(C)(C)N/N=C(/Cc1nc2c3c(ccc2[nH]c1=O)C(=O)c1ccccc1C3=O)C(=O)NC1=C(Cl)C(=O)c2ccccc2C1=O |  | > 100 µM |  | 89.5 µM |  |  |  | > 100 µM |  | 88.8 |  | > 100 µM |  | > 100 µM | > 100 µM |  |
